Assay [1] relates to Mycobacterium tuberculosis. The assay can be described thus: Antitubercular activity against Mycobacterium tuberculosis H37Rv by agar microdilution technique. It counts as functional.
In assay [2] the test system is Mycobacterium tuberculosis. Kind of assay: Antitubercular activity against Mycobacterium tuberculosis H37Rv by standard BACTEC radiometric growth assay. It counts as functional.

Results on 17 compounds are retold here after ChEMBL document CHEMBL1141943, “Synthesis and antitubercular activity of 2-hydroxy-aminoalkyl derivatives of diaryloxy methano phenanthrenes” (2005).

The term MIC denotes the least concentration at which growth counts as inhibited. The low end stands for inhibition by little substance, the high end for a need for much substance.

SMILES strings stand for the structures. Converted amounts (≈) assume the structure as drawn.

Take `COc1ccc(C(c2ccc(OCC(O)CNC3CC3)cc2)c2cc3ccccc3c3ccccc23)cc1` (stereo unspecified): the minimal inhibitory concentration (MIC) in assay [1] and in assay [2] was 25 µg/mL (≈ 49.6 µM) throughout.

With `OC(CNC1CCCCC1)COc1ccc(C(c2ccc(OCC(O)CNC3CCCCC3)cc2)c2cc3ccccc3c3ccccc23)cc1` (stereo unspecified), the results for the minimal inhibitory concentration (MIC) in assay [1] and in assay [2] were 6.25 µg/mL (≈ 9.1 µM) and 12.5 µg/mL (≈ 18.2 µM), respectively.

As for `OC(COc1ccc(C(c2ccc(OCC(O)CN3CCCCC3)cc2)c2cc3ccccc3c3ccccc23)cc1)CN1CCCCC1` (stereo unspecified), the MIC in assay [1] amounted to 6.25 µg/mL (≈ 9.49 µM); in assay [2], 12.5 µg/mL (≈ 19 µM).

In the case of `COc1ccc(C(c2ccc(OCC(O)CN3CCOCC3)cc2)c2cc3ccccc3c3ccccc23)cc1` (stereo unspecified), the MIC in assay [1] was 25 µg/mL (≈ 46.8 µM).

Consider `NNC(=O)c1ccncc1` [ISONIAZID], for which the MIC in assay [1] came out at 0.05 µg/mL (≈ 0.365 µM); in assay [2], 0.025 µg/mL (≈ 0.182 µM).

As for `COc1ccc(C(c2ccc(OCC(O)CN3CCCC3)cc2)c2cc3ccccc3c3ccccc23)cc1` (stereo unspecified), the MIC in assay [1] and in assay [2] was 12.5 µg/mL (≈ 24.1 µM) in each case.

For the compound `OC(COc1ccc(C(c2ccc(OCC(O)CN3CCCC3)cc2)c2cc3ccccc3c3ccccc23)cc1)CN1CCCC1` (stereo unspecified), the MIC in assay [1] and in assay [2] was 12.5 µg/mL (≈ 19.8 µM) in each case.

For `COc1ccc(C(c2ccc(OCC(O)CNC3CCCCC3)cc2)c2cc3ccccc3c3ccccc23)cc1` (stereo unspecified), the MIC worked out at 12.5 µg/mL (≈ 22.9 µM) in assay [1] and 6.25 µg/mL (≈ 11.5 µM) in assay [2].

For `COc1ccc(C(c2ccc(OCC3CO3)cc2)c2cc3ccccc3c3ccccc23)cc1` (stereo unspecified), the MIC in assay [1] came to 25 µg/mL (≈ 56 µM).

Turning to `CCN(CC)CC(O)COc1ccc(C(c2ccc(OC)cc2)c2cc3ccccc3c3ccccc23)cc1` (stereo unspecified), the minimum inhibitory concentration (MIC) in assay [1] and in assay [2] was 6.25 µg/mL (≈ 12 µM) in each case.

As for `CCCCNCC(O)COc1ccc(C(c2ccc(OC)cc2)c2cc3ccccc3c3ccccc23)cc1` (stereo unspecified), the MIC in assay [1] and in assay [2] was 6.25 µg/mL (≈ 12 µM) throughout.

`COc1ccc(C(c2ccc(OCC(O)CN3CCCCC3)cc2)c2cc3ccccc3c3ccccc23)cc1` (stereo unspecified): the MIC in assay [1] and in assay [2] was 12.5 µg/mL (≈ 23.5 µM) throughout.

In assay [1], `COc1ccc(C(c2ccc(OCC(O)CN3CCN(Cc4ccccc4)CC3)cc2)c2cc3ccccc3c3ccccc23)cc1` (stereo unspecified) came in with an MIC of 25 µg/mL (≈ 40.1 µM).

As to `COc1ccc(C(c2ccc(OCC(O)CN3CCN(C)CC3)cc2)c2cc3ccccc3c3ccccc23)cc1` (stereo unspecified), the MIC in assay [1] and in assay [2] was 12.5 µg/mL (≈ 22.9 µM) each time.

Regarding `CN1CCN(CC(O)COc2ccc(C(c3ccc(OCC(O)CN4CCN(C)CC4)cc3)c3cc4ccccc4c4ccccc34)cc2)CC1` (stereo unspecified), the MIC in assay [1] and in assay [2] was 12.5 µg/mL (≈ 18.1 µM) in each case.

On to `COc1ccc(C(c2ccc(OCC(O)CNC3CCCCCC3)cc2)c2cc3ccccc3c3ccccc23)cc1` (stereo unspecified), for which the minimal inhibitory concentration (MIC) in assay [1] and in assay [2] was 3.12 µg/mL (≈ 5.57 µM) in each case.

As for `CO[C@H]1/C=C/O[C@@]2(C)Oc3c(C)c(O)c4c(O)c(c(/C=N/N5CCN(C)CC5)c(O)c4c3C2=O)NC(=O)/C(C)=C\C=C\[C@H](C)[C@H](O)[C@@H](C)[C@@H](O)[C@@H](C)[C@H](OC(C)=O)[C@@H]1C` [RIFAMPIN], the MIC worked out at 0.1 µg/mL (≈ 0.122 µM) in assay [1] and 0.2 µg/mL (≈ 0.243 µM) in assay [2].
